Columns and labels:
adiponectin [1] = assay: Serum adiponectin levels in rats orally administered β-NMN (Example 1); assay type: in vivo, rat; settings: CD rats, males and females, oral 250 and 1000 mg/kg/day, day 28
Experimental: (§1) A solution prepared by dissolving β-NMN (Oriental Yeast Co., Ltd.) in water for injection (Otsuka Pharmaceutical Co., Ltd.) or PBS (phosphate-buffered saline) was orally administered by gavage using a metal gastric tube (Fuchigami Kikai Co., Ltd.) attached to a polypropylene disposable syringe (Terumo Corp.).
(§2) Measurement of adiponectin levels in the following experiments was carried out in the manner indicated below.
(§3) Anti-mouse adiponectin polyclonal antibody (Oriental Yeast Co., Ltd.) was adjusted to 10 μg/mL with PBS for use as primary antibody solution. […]
(§4) Moreover, 100 μl of substrate solution (Becton Dickinson & Co., TMB Substrate Reagent Set, #555214) were added to each well, and the plate covered with sealing film was incubated for 15 minutes at 25° C. After stopping the reaction by adding 100 μL of 2 N sulfuric acid to each well, the absorbance of each well was measured at a primary wavelength of 450 nm and a secondary wavelength of 570 nm with a plate reader (FLOUstar Optima, BMG LabTech Ltd.). Furthermore, since the mouse adiponectin polyclonal antibody used in ELISA cross-reacts with rat adiponectin, levels of rat adiponectin were measured as mouse adiponectin by using standard mouse adiponectin. […]
Rat serum adiponectin levels were measured on day 28 from the start of administration.

adiponectin [2] = assay: Serum adiponectin levels in mice orally administered β-NMN (Example 2); assay type: in vivo, mouse; settings: C57BL/6N mice, females, oral 125 and 625 mg/kg/day, day 4
Experimental: as §1, §2, §3, §4
(§5) Mouse serum adiponectin levels were measured on day 4 from the start of administration. […]

adiponectin [3] = assay: Serum adiponectin levels in mice intraperitoneally administered β-NMN (Example 3); assay type: in vivo, mouse; settings: C57BL/6J mice, females, intraperitoneal 625 and 1250 mg/kg/day, day 4
Experimental: A solution prepared by dissolving β-NMN (Oriental Yeast Co., Ltd.) in PBS (phosphate-buffered saline) was administered intraperitoneally in accordance with the method of Dr. Sinclair (Gomes, et al., Cell, 2013, Vol. 155, p. 1624-1638) and the method of Dr. Imai (Yoshino, et al., Cell Metabolism, 2011, Vol. 14, p. 528-536).
as §2, §3, §4, §5

[4] = test system: adipocytes differentiated from mouse fibroblast 3T3-L1 cells; assay: Adiponectin secreted from adipocytes differentiated from 3T3-L1 cells stimulated with β-NMN (Example 4); assay type: cell-based; settings: 3T3-L1 adipocytes cultured with β-NMN for 7 days vs without
Experimental: 3T3-L1 cells were differentiated into adipocytes and then the cells were stimulated with β-NMN to measure the secreted amount of adiponectin. The 3T3-L1 cells were differentiated into adipocytes in the manner described below. First, 3T3-L1 cells were seeded in a 24-well plate at 5×10^4 cells/well followed by culturing for 2 to 3 days in culture medium (DMEM containing 10% fetal bovine serum (FBS)) at 37° C. in 5% CO2. Next, the culture medium was replaced with a first differentiation-inducing medium (containing 10 μM dexamethasone, 5 μM 3-isobutyl-1-methylxanthine (IBMX) and 10 μg/mL of insulin) followed by culturing for 2 days at 37° C. in 5% CO2. The medium was replaced with the second differentiation-inducing medium (containing 10 μg/mL of insulin) followed by culturing for 2 days at 37° C. in 5% CO2. Subsequently, the medium was twice replaced with culture medium every 2 to 3 days to differentiate the 3T3-L1 cells into mature adipocytes. 3T3-L1 adipocytes were cultured in the presence (“NMN addition”) or absence (“NMN non-addition”) of β-NMN for 7 days. The amount of adiponectin secreted into the culture supernatant was measured. The results of measurement of adiponectin levels in the culture supernatant are shown in. FIG. 4. […]

[5] = test system: ANKO mice (adipose tissue-specific NAMPT knockout mice); assay: NAD+ precursor rescue experiments in ANKO mice (Example 5); assay type: in vivo, mouse
Text: To determine whether metabolic derangements depend on the defects in NAD+ biosynthesis in ANKO mice, we treated mice with NMN, a key NAD+ intermediate and the product of the NAMPT reaction (FIG. 6A). In the diagram, “NA” represents nicotinic acid, “NaMN” represents nicotinic acid mononucleotide, “NIC” represents nicotinamide, “NR” represents nicotinamide riboside, “Tip” represents tryptophan, and “NAPRT” represents nicotinate phosphoribosyl transferase. NMN is a product of an enzyme reaction mediated by NAMPT and is converted directly to NAD+. Nicotinic acid is a precursor in the NAPRT-dependent NAD+ biosynthesis pathway.
ANKO mice were generated by using adiponectin-Cre transgenic mice and floxed-Nampt mice as previously described (Noon et al., 2015). Mice were maintained on a standard chow diet (LabDiet 5053; LabDiet) ad libitum. For RSG rescue experiments, ANKO mice received a chow containing RSG (#71740; Cayman Chemical) at the approximate dose of 20 mg/kg body Weight/day soon after weaning for up to 7 weeks. For NAD+ precursor rescue experiments, we administered NMN (#44500900; Oriental Yeast) and NA (#72309; Sigma-Aldrich) in drinking water, at the approximate dose of 500 mg/kg of body weight, to ANKO mice soon after weaning for up to 2 months.
More specifically, drinking water containing NMN (500 mg/kg body weight/day) was administered to the female ANKO mice and metabolic parameters were investigated after administering NMN for 4 to 6 weeks. In the graphs, “NMN-ANKO” indicates the results for NMN-treated ANKO mice, “ANKO” indicates the results for NMN-untreated ANKO mice of the same age as the NMN-treated ANKO mice, and “flox/flox” indicates the results for the control mice (female Nampt-floxed (flox/flox) mice). All values in the graphs represent the mean ±SE. In the graphs, “*” indicates p<0.05, “**” indicates p<0.01, and “***” indicates p<0.001 (NMN-treated ANKO mice vs. NMN-untreated ANKO mice, Student's t-test). In addition, in the graphs, “a” indicates p<0.05 (NMN-treated ANKO mice vs. NMN-untreated ANKO mice, ANOVA), and “b” indicates p<0.05 (control mice vs. NMN-untreated ANKO mice, ANOVA).
FIG. 6B indicates the results of measuring […] levels in adipose tissue for female ANKO mice administered NMN for 4 to 6 weeks (500 mg/kg body weight day) and non-dosed female ANKO mice of the same age (per group, n=5 to 7). NAD+ levels were measured with an HPLC (high-performance liquid chromatography) system using a Supelco LC-18-T column (#58970-U, Sigma-Aldrich Corp.) (Yoon, et al., Cell Metabolism, 2015, Vol. 21, p. 706-717). FIG. 6C indicates the results of having carried out an insulin tolerance test (ITT), consisting of administering insulin and measuring blood glucose concentration over time, on NMN-treated mice following administration of NMN for 4 weeks (n=7) and non-dosed ANKO mice for which age has been aligned at 2 to 3 weeks (n=14), and control mice (n=8). The left graph in FIG. 6C indicates the results for changes in glucose concentration over time (insulin tolerance curve), while the graph on the right side of FIG. 6C indicates the results for the area under the curve (AUC) of glucose concentration.
The results for measuring plasma insulin concentrations for NMN-treated ANKO mice, NMN-untreated ANKO mice and control mice are shown in FIG. 6D, while the results of measuring plasma free fatty acid (FFA) concentrations are shown in FIG. 6E (per group, n=5 to 11). In addition, visceral adipose tissue was respectively sampled from NMN-treated ANKO mice and NMN-untreated ANKO mice followed by measurement of the levels of PPARγ (Ser273), CDK5 and nuclear protein acetylated lysine in the visceral adipose tissue (per group, n=3 to 4). […]

[6] = ANKO mice, NMN 500 mg/kg body weight/day, 4 to 6 weeks
[7] = NMN-treated vs untreated ANKO mice
[8] = visceral adipose tissue, NMN-treated vs untreated ANKO mice

SMILES	serum adiponectin levels (adiponectin [1])	serum adiponectin levels (adiponectin [2])	serum adiponectin levels (adiponectin [3])	adiponectin levels in the culture supernatant [4]	insulin sensitivity (insulin tolerance test) ([5]; ANKO mice, NMN 500 mg/kg body weight/day for 4 weeks, vs age-matched untreated ANKO mice)	plasma FFA concentrations [5, 6]	plasma insulin concentrations [5, 6]	plasma concentrations of adiponectin [5, 7]	plasma concentrations of adipsin [5, 7]	adipose tissue NAD+ concentrations ([5]; female ANKO mice, NMN 500 mg/kg body weight/day in drinking water, 4 to 6 weeks)	Adipose tissue gene expression of adiponectin and adipsin [5, 8]	global nuclear lysine acetylation [5, 8]	phosphorylation of CDK5 in VAT [5, 8]	phosphorylation of PPARγ (Ser273) in VAT [5, 8]	metabolic disorders of ANKO mice ([5]; β-NMN 500 mg/kg body weight/day in drinking water, 4 to 6 weeks)	metabolic disorders of ANKO mice ([5]; nicotinic acid 500 mg/kg body weight/day, 5- to 7-week administration)
NC(=O)c1ccc[n+]([C@@H]2O[C@H](COP(=O)([O-])O)C(O)[C@H]2O)c1 (stereo partly drawn) [β-NMN, Nicotinamide mononucleotide]	increased serum adiponectin levels dose-dependently	increased serum adiponectin levels dose-dependently	increased serum adiponectin levels dose-dependently	higher	improved	normalized	normalized	restored	restored	significantly increased	restored	reduced	decreased	decreased	improved	–
O=C(O)c1cccnc1 [nicotinic acid, reference compound]	–	–	–	–	–	–	–	–	–	–	–	–	–	–	–	improved

Reference: patent US10695360B2, “Adiponectin secretion enhancer” (WASHINGTON UNIVERSITY, priority 2017, dated 2020)
